In patent publication US12448363B2, “Kinase inhibitors” (Vidya Therapeutics, Inc., priority 2020, dated 2025) one finds IC50 and Kp data, which are given here for 14 molecules.

Series [1] concerns BTK Activity in RAMOS B Cells. Description: Assay to determine BTK activity in RAMOS B cells (anti-IgM, FLIPR Calcium 6). Format: cell-based. The settings on record: EC80 anti-IgM, FLIPR calcium read. An outline of the steps:
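Ramos B cells were loaded with Calcium 6 dye containing 5 mM probenecid (2 h at 37 °C, then 15 min at 25 °C) and exposed to compound for 60 min at 25 °C. Anti-IgM was then added from a 4×EC80 stock, and calcium flux was recorded by FLIPR for 160 s; IC50 was derived.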

The nature of series [2]: Plasma and total brain concentrations at 1 h post a single oral administration to female C57BL/6 mice. To be noted: mouse, 1 h post single oral 10 mg/kg, LC-MS/MS, read-out: Brain:plasma ratio. Format: in vivo. How it is done:
Determination of Plasma and Total Brain Concentrations at 1 h Post a Single Oral Administration of Test Compound to Female C57BL/6 Mice
The appropriate amount of test article was dissolved 10% dimethylacetamide (DMA)/90% (20% hydroxypropyl-b-cyclodextrin (HP-β-CD) w/v in water to obtain a final concentration of 1 mg/mL for oral dosing. Sonication, vortex, and homogenization was used as needed. Three female C57BL/6 mice aged 7-9 weeks (20-30 grams) were dosed by oral gavage 10 mg/kg solution of the test article.
Concentrations of representative test compounds in the plasma and brain samples (using plasma and brain homogenate standard curve for all samples appropriately) were analyzed using LC-MS/MS. With respect to the brain:plasma ratio, Table 11 lists the results as follows: • “A” denotes a ratio >0.5; • “B” denotes a ratio between 0.1 and 0.5; and • “C” denotes a ratio <0.1.

For a further series, the target named is BTK (Homo sapiens, UniProt Q06187). The experiment in a line: Assay to determine activity against BTK (EZ reader, FLPeptide). Format: biochemical. On the set-up: purchased Carna. The settings on record: ATP (1 mM), BTK (2 nM), room temperature for 90 minutes. An outline of the steps: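 Human BTK (2 nM) phosphorylated FLPeptide (1.5 uM) with 1 mM ATP in 50 mM HEPES pH7.5, 10 mM MgCl2, 2 mM DTT, 1 mM EGTA, 0.01% Brij-35, 0.05% BSA; 11-point 3-fold compound dilutions. After 90 min at room temperature, EDTA stop; conversion ratio read on EZ reader, IC50 from curve fit with free top and bottom.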

Where only a bound is given, the exact number is not on record here.

BTK, sequence (Q06187 whole entry): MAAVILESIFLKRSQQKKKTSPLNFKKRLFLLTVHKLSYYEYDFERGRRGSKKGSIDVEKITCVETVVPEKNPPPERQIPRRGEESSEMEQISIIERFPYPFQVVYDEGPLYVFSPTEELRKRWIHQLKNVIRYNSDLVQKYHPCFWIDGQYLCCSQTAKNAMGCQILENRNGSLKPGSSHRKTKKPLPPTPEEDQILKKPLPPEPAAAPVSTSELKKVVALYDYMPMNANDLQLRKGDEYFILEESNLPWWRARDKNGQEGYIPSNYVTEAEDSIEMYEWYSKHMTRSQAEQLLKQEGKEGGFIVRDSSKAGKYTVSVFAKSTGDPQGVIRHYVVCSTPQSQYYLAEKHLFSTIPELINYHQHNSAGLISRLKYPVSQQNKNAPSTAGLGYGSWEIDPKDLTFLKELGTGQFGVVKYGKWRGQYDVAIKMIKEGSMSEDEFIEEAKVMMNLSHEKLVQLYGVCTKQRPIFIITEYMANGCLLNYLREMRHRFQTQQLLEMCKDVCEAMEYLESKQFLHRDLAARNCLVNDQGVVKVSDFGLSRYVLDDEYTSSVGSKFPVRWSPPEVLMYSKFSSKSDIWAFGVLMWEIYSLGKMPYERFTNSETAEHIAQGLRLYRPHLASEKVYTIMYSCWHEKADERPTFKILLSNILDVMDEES

In the case of `C=CC(=O)N1CCc2c(-c3c(F)cc(C(N)=O)c4[nH]c(C)c(Cl)c34)cccc2C1C` (racemic) [Compound 22a, 4-(2-acryloyl-1-methyl-1,2,3,4-tetrahydroisoquinolin-5-yl)-3-chloro-5-fluoro-2-methyl-1H-indole-7-carboxamide], the IC50 in series [1] (Homo sapiens, Ramos) is 10 to 100 nM; at BTK it was < 10 nM. Also, the Kp at 1 h in series [2] lay within 0.1 to 0.5.
In the case of `C=CC(=O)N1CCC2CCN(c3c(F)cc(C(N)=O)c4[nH]c(C)c(Cl)c34)CC21` (racemic) [Compound 29, 4-(1-acryloyloctahydro-6H-pyrrolo[2,3-c]pyridin-6-yl)-3-chloro-5-fluoro-2-methyl-1H-indole-7-carboxamide], the IC50 lay within 10 to 100 nM in series [1] (Homo sapiens, Ramos) and 10 to 100 nM on BTK. Further, the Kp at 1 h in series [2] fell in the range of 0.1 to 0.5.
Consider `C=CC(=O)N1CCc2c(cccc2-c2c(F)cc(C(N)=O)c3[nH]c(C)c(Cl)c23)C1` (single isomer, unassigned) [Compound 20b], for which the IC50 (in series [1]; on BTK) was < 10 nM each time. In series [2], the Kp at 1 h was in the range of 0.1 to 0.5.
`C=CC(=O)N1CCC2CCN(c3c(F)cc(C(N)=O)c4[nH]c(C)c(Cl)c34)CC21` (single isomer, unassigned) [Compound 29a, 4-(1-acryloyloctahydro-6H-pyrrolo[2,3-c]pyridin-6-yl)-3-chloro-5-fluoro-2-methyl-1H-indole-7-carboxamide]: the IC50 lay within 10 to 100 nM in series [1] (Homo sapiens, Ramos) and 10 to 100 nM against BTK. Further, the Kp at 1 h in series [2] was 0.1 to 0.5.
For `C=CC(=O)N1CCC2CCN(c3c(F)cc(C(N)=O)c4[nH]c(C)c(C)c34)CC21` (single isomer, unassigned) [Compound 32b, 4-(1-acryloyloctahydro-6H-pyrrolo[2,3-c]pyridin-6-yl)-5-fluoro-2,3-dimethyl-1H-indole-7-carboxamide], the IC50 (in series [1]; on BTK) was 10 to 100 nM in each case. Besides, the Kp at 1 h in series [2] is < 0.1.
For `C=CC(=O)N1CCC=C(c2c(F)cc(C(N)=O)c3[nH]c(C)c(Cl)c23)C1` [Compound 1, 4-(1-acryloyl-1,2,5,6-tetrahydropyridin-3-yl)-3-chloro-5-fluoro-2-methyl-1H-indole-7-carboxamide], the IC50 in series [1] (Homo sapiens, Ramos) is < 10 nM; at BTK, < 10 nM. The Kp at 1 h in series [2] was < 0.1.
For `C=CC(=O)N1CCC[C@@H](c2c(F)cc(C(N)=O)c3[nH]c(C)c(Cl)c23)C1` [Compound 2a, (S)-4-(1-acryloylpiperidin-3-yl)-3-chloro-5-fluoro-2-methyl-1H-indole-7-carboxamide], the IC50 is < 10 nM in series [1] (Homo sapiens, Ramos) and < 10 nM at BTK. In series [2], the Kp at 1 h is 0.1 to 0.5.
For the molecule `C=CC(=O)N1CCC[C@H](c2c(F)c(F)c(C(N)=O)c3[nH]c(C)c(F)c23)C1` [Compound 6a, (R)-4-(1-acryloylpiperidin-3-yl)-3,5,6-trifluoro-2-methyl-1H-indole-7-carboxamide], the IC50 in series [1] (Homo sapiens, Ramos) was < 10 nM; against BTK it was < 10 nM. The Kp at 1 h in series [2] lay within 0.1 to 0.5.
As to `C=CC(=O)N1CCC[C@@H](c2c(F)c(F)c(C(N)=O)c3[nH]c(C)c(F)c23)C1` [Compound 6b, (S)-4-(1-acryloylpiperidin-3-yl)-3,5,6-trifluoro-2-methyl-1H-indole-7-carboxamide], the IC50 in series [1] (Homo sapiens, Ramos) was < 10 nM; on BTK it was < 10 nM. For the same molecule, the Kp at 1 h in series [2] was in the range of 0.1 to 0.5.
For `C=CC(=O)N1CCC[C@@H](c2c(F)c(F)c(C(N)=O)c3[nH]c(C)c(Cl)c23)C1` [Compound 16, (S)-4-(1-acryloylpiperidin-3-yl)-3-chloro-5,6-difluoro-2-methyl-1H-indole-7-carboxamide], the IC50 in series [1] (Homo sapiens, Ramos) was < 10 nM; against BTK it was < 10 nM. In series [2], the Kp at 1 h is 0.1 to 0.5.
Regarding `CC#CC(=O)N[C@H]1C[C@@H](F)CN(c2c(F)cc(C(N)=O)c3[nH]c(C)c(Cl)c23)C1` [Compound 27, 4-((3S,5R)-3-(but-2-ynamido)-5-fluoropiperidin-1-yl)-3-chloro-5-fluoro-2-methyl-1H-indole-7-carboxamide], the 50% inhibitory concentration (IC50) in series [1] (Homo sapiens, Ramos) was < 10 nM; against BTK, < 10 nM. Further, the Kp at 1 h in series [2] is 0.1 to 0.5.
With `CC#CC(=O)N[C@H]1C[C@@H](F)CN(c2c(F)cc(C(N)=O)c3[nH]c(C)c(C)c23)C1` [Compound 33, 4-((3S,5R)-3-(but-2-ynamido)-5-fluoropiperidin-1-yl)-5-fluoro-2,3-dimethyl-1H-indole-7-carboxamide], the IC50 in series [1] (Homo sapiens, Ramos) is < 10 nM; at BTK, < 10 nM. Besides, the Kp at 1 h in series [2] is < 0.1.
Consider `CC#CC(=O)N[C@H]1C[C@H](F)CN(c2c(F)cc(C(N)=O)c3[nH]c(C)c(C)c23)C1` [Compound 35, 4-((3S,5S)-3-(but-2-ynamido)-5-fluoropiperidin-1-yl)-5-fluoro-2,3-dimethyl-1H-indole-7-carboxamide], for which the IC50 in series [1] (Homo sapiens, Ramos) is < 10 nM; at BTK, < 10 nM. For the same molecule, the Kp at 1 h in series [2] was < 0.1.
In the case of `CC#CC(=O)N1CCCC2CN(c3c(F)cc(C(N)=O)c4[nH]c(C)c(Cl)c34)CC21` (stereo not drawn) [Compound 40, 4-(1-(but-2-ynoyl)octahydro-6H-pyrrolo[3,4-b]pyridin-6-yl)-3-chloro-5-fluoro-2-methyl-1H-indole-7-carboxamide], the IC50 in series [1] (Homo sapiens, Ramos) is 10 to 100 nM; at BTK, < 10 nM. In addition, the Kp at 1 h in series [2] is > 0.5.

The IC50 is the concentration at which inhibition is half-maximal.
